Experimental data: patent publication US20120244601A1, “[…] INDUCIBLE GENE […]” (priority 2011, published 2012)

Assays:
M. smegmatis RiboS-katG = assay: Isoniazid antibiotic resistance assay, RiboS-katG strain
GFP = format: cell-based, M. tuberculosis
β-galactosidase = assay: β-Galactosidase activity assay in M. smegmatis; format: cell-based
lacZ reporter gene = assay: β-galactosidase assay in B. subtilis; settings: switches B and E compared
Experimental: B. subtilis strain JH642 (2) was grown at 37° C. in LB with shaking (250 rpm). […] To assay for β-galactosidase activity, strains harboring the riboswitches were grown overnight in LB media with 20 μg/mL kanamycin. In the morning, cells were diluted 1:100 into fresh selective media containing 1 mM IPTG and either 0 or 2 mM theophylline. β-galactosidase assays were performed by the method of Miller (13) using permeabilization with toluene. […] Error bars are ±SD.

NNC(=O)c1ccncc1 [isoniazid]
isoniazid EC50 with increasing theophylline concentrations (M. smegmatis RiboS-katG; 0-10 mM theophylline): the EC50 decreases | isoniazid phenotype in the absence of theophylline (M. smegmatis RiboS-katG; no theophylline): isoniazid resistance phenotype

Cn1c(=O)c2[nH]cnc2n(C)c1=O [theophylline]
theophylline concentration of maximal GFP expression (GFP): ~2 mM | theophylline concentration of maximum β-galactosidase reporter expression (β-galactosidase): ~2 mM

B1: Riboswitch B: synthetic theophylline-responsive riboswitch, mRNA sequence SEQ ID NO: 12 (nucleic acid)
chain: GGUACCGGUGAUACCAGCAUCGUCUUGAUGCCCUUGGCAGCACCCGCUGCGCAGGGGGUAUCAACAAGAUG
modifications: chemistry not fully specified
activation ratios and levels of expression compared (lacZ reporter gene): comparable activation ratios, but substantially different levels of expression
